The numbers were not newly measured in patent US20120142631A1, “MEDICINAL ANTIDIAPER RASH CREAM INCORPORATING A BIOPOLYMER AND A PROCESS TO MAKE IT” (APEX LABORATORIES PRIVATE LIMITED, priority 2009, published 2012), which cites them from elsewhere.

The structures appear in SMILES notation. Like-named read-outs stand apart in the source and are kept apart here.

With `CCCCCCCCCCCCC[N+](C)(C)Cc1ccccc1.[Cl-]` [Benzalkonium chloride, benzyl-dimethyl-tridecyl-azanium chloride], the Solubility entry by setting is: (acetone) “readily soluble”; (ethanol) “readily soluble”. The Solubility / miscibility entry is recorded as “miscible” (ethanol (95%)) and “miscible” (water).
In the case of `CCCCCCCCCCCCCC[N+](C)(C)C.[Br-]` [Cetrimide, tetradecyltrimethylammonium bromide], the Solubility result by setting is: (chloroform) “freely soluble”; (ether) “practically insoluble”. The Solubility / miscibility entry is, setting by setting: (ethanol (95%)) “freely soluble”; (water) “freely soluble”.
